Assays:
[1] = in vivo
Experimental: Study Objectives: To evaluate whether HIM2 doses, when titrated, are able to maintain 2-hour post-prandial blood glucose levels consistent with the pre-study range between 80-250 mg/dL as compared to insulin lispro and to evaluate the safety profile for HIM2. Patient Population: Adult patients with type 1 diabetes participated in the study. […] Design and Methods: A multicenter, dose titration, randomized, insulin lispro controlled, parallel, open-label study was conducted. A 2-day inpatient period was provided to establish optimal basal rate. A 5-7 day run-in period (maintained optimized basal rate; insulin requirements, episodes of hypoglycemia or hyperglycemia, dietary intake and physical activity recorded) was provided. A 3-day inpatient dosing period was performed. Carbohydrate intake was individualized (40% of total calories, equally divided among 4 meals during each study day). Basal insulin (CSII) was unchanged throughout the 3-day dosing period. Initial Doses: HIM2 0.25 mg/kg (7.2 U/kg; 1 mg of insulin=28.7 units of insulin), p.o., in a formulation shown in Table 1, 10 minutes prior to meal, HIM2 0.125 mg/kg (3.6 U/kg; 1 mg of insulin=28.7 units of insulin), p.o., in a formulation shown in Table 1, 120 minutes post meal, and Insulin lispro (commercially available from Eli Lilly & Co., Indianapolis, Ind.) (hereinafter “Lispro”), 0.1 U/kg (0.003 mg/kg; 1 mg of insulin=28.7 units of insulin), s.c., 15 minutes prior to meal. Doses were adjusted as necessary with the next scheduled dose according to the dose titration rules described in Table 2; however, no dose titration was allowed during study day 3.
Assays: Plasma glucose: glucose oxidase-based enzymatic assay. Plasma insulin: RIA method (Linco Research, St. Charles, Mo.). Efficacy Variables: The following variables were evaluated to determine efficacy of HIM2 compared to Lispro. (1) Percentage of patients able to maintain 2-hour postprandial blood glucose levels consistent with pre-study values between 80-250 mg/dL on Day 3 (HIM2 compared to insulin lispro). (2) Daily mean plasma glucose on Day 3. (3) Postprandial glucose at 2 hours during Day 3. (4) Number of rescue interventions (hypoglycemia). Safety Variables: Adverse events, vital signs, clinical chemistry, hematology, urinalysis, and ECG monitoring. Data Analysis: A comparison of proportion of patients within target glucose range (80-250 mg/dL) was analyzed. The daily mean plasma glucose AUC was analyzed using a t-test. The Day 3-2 hour post-prandial glucose was analyzed using a t-test. Comparison of rates for hypoglycemic events was analyzed using glucose 50-60 mg/dL, glucose ≦50 mg/mL, and number of rescue interventions. Demographics: A total of 31 patients were enrolled and analyzed in this study (15 M/16 F).

[2] = Dose titration study of oral HIM2 vs. insulin lispro: glucodynamics; assay type: in vivo, human; details: adult type 1 diabetes patients; for Day 3 - 2 Hour Post-prandial Glucose, Breakfast (Mean ± SEM) / Day 3 - 2 Hour Post-prandial Glucose, Dinner (Mean ± SEM) / Day 3 - 2 Hour Post-prandial Glucose, Evening Snack (Mean ± SEM) / Day 3 - 2 Hour Post-prandial Glucose, Lunch (Mean ± SEM): basal CSII, HIM2 p.o., Lispro s.c., titrated doses; for Day 3 - 2 Hour Post-prandial Glucose, Breakfast (Mean ± SEM): after breakfast, p = 0.28; for Day 3 - 2 Hour Post-prandial Glucose, Dinner (Mean ± SEM): after dinner, p = 0.07; for Day 3 - 2 Hour Post-prandial Glucose, Evening Snack (Mean ± SEM): after evening snack, p = 0.24; for Day 3 - 2 Hour Post-prandial Glucose, Lunch (Mean ± SEM): after lunch, p = 0.29; for Day 3 - Daily Mean (±SEM) Plasma Glucose AUC: total 24-hour AUC divided by 1440 (time-adjusted), p = 0.46; for Patients with average 2-hour post-prandial glucose levels consistent with pre-study values (range 80-250 mg/dL): Fisher's exact test p=0.42
Experimental: A 3-day inpatient dosing period was performed.
Assays: Plasma glucose: glucose oxidase-based enzymatic assay. Plasma insulin: RIA method (Linco Research, St. Charles, Mo.). […] (2) Daily mean plasma glucose on Day 3. (3) Postprandial glucose at 2 hours during Day 3. (4) Number of rescue interventions (hypoglycemia).

Lys^B29-Hexyl-PEG7-Oligomer-Conjugated Insulin [HIM2]
Documented serious adverse event for hypoglycemia [1]: One | Hypoglycemic events that required rescue intervention [1]: significantly lower | Number and frequency of gastrointestinal side effects (primarily unpleasant taste and diarrhea) [1]: occurred more frequently | Number of hypoglycemic events (overall assessment) [1]: trend toward fewer events | Day 3 - 2 Hour Post-prandial Glucose, Breakfast (Mean ± SEM) [2]: 192.3 ± 19.4 | Day 3 - 2 Hour Post-prandial Glucose, Dinner (Mean ± SEM) [2]: 249.0 ± 19.3 | Day 3 - 2 Hour Post-prandial Glucose, Evening Snack (Mean ± SEM) [2]: 231.4 ± 18.4 | Day 3 - 2 Hour Post-prandial Glucose, Lunch (Mean ± SEM) [2]: 232.9 ± 21.0 | Day 3 - Daily Mean (±SEM) Plasma Glucose AUC [2]: 182.0 ± 10.0 mg/dL | Patients with average 2-hour post-prandial glucose levels consistent with pre-study values (range 80-250 mg/dL) [2]: 63%

Insulin lispro [reference compound]
Day 3 - 2 Hour Post-prandial Glucose, Breakfast (Mean ± SEM) [2]: 158.2 ± 24.3 | Day 3 - 2 Hour Post-prandial Glucose, Dinner (Mean ± SEM) [2]: 195.3 ± 20.6 | Day 3 - 2 Hour Post-prandial Glucose, Evening Snack (Mean ± SEM) [2]: 197.9 ± 20.4 | Day 3 - 2 Hour Post-prandial Glucose, Lunch (Mean ± SEM) [2]: 202.6 ± 16.1 | Day 3 - Daily Mean (±SEM) Plasma Glucose AUC [2]: 170.6 ± 11.8 mg/dL | Patients with average 2-hour post-prandial glucose levels consistent with pre-study values (range 80-250 mg/dL) [2]: 83%

From patent US7601688B2, “Methods of reducing hypoglycemic episodes in the treatment of diabetes mellitus” (Biocon Limited, priority 2001, dated 2009)
